From publication PMC12152147, “DDB1 engagement defines the selectivity of S656 analogs for cyclin K degradation over CDK inhibition” (EMBO Reports, 2025) come the findings set out here.

pIC50: −log10 of the molar value. In brackets after ≈: the same amount, converted by molar mass. Several values for one entry are separate records, joined by “and”; a condition that tells them apart may be missing. Identical values can stand only once. Like-named read-outs stand apart in the source and are kept apart here.

Series [1] is described as follows: Kinetic solubility measurement (HPLC-UV). It counts as physicochemical. The settings on record: aqueous buffer, kinetic from dmso stock, αMEM media, nominal 200 μM, room temperature, triplicate. The procedure: A 40 μL aliquot of a 10 mM DMSO stock solution of S656 was prepared and diluted in αMEM media to achieve a nominal concentration of 200 μM. The samples were incubated with stirring at 1100 rpm for 24 h at room temperature. From the incubation mixture, 20 μL was pipetted, rinsed in acetonitrile (MeCN) for 5 s, then in water for 5 s. Subsequently, 10 μL was discarded, and the remaining 10 μL was transferred to a mixture containing 10 μL of PBS, 980 μL of quenched solution, and 10 μL of DMSO. Analysis was performed using HPLC equipped with a UV-visible detector (HPLC-UV). Chromatography was conducted under reverse-phase conditions with a column temperature of 55 °C on a Waters XSelect HSS T3 column (2.5 μm, 2.1 ×50 mm). The aqueous solvent (solvent A) was ultrapure water with 0.1% formic acid, and the organic eluent (solvent B) was acetonitrile. The injection volume was 4 μL, and the flow rate was set at 0.6 mL/min.

The subject of series [2] is OCI-AML5 Cas9 cells (sgDDB1, sgAAVS1). The series is described as follows: Dose response in inducible OCI-AML5 Cas9 cells expressing sgRNAs targeting DDB1 or AAVS1. It counts as cell-based, H. sapiens. The settings on record: 4 days, read-out: S656 IC50. The procedure:
Dose-response assays in primary AML specimens were performed as in chemical screen (see above) with the exception that compounds were tested in serial dilution (8 dilutions, 1:4, 10 μM down to 0.5 nM). Dose-response assays in OCI-AML5 cell line were conducted similarly with the following modifications: 300 cells per well were seeded in 50 μL of cell line media and cell viability was evaluated after 4 days in culture.
Clonal OCI-AML5 cells expressing an inducible Cas9 (Addgene plasmid #50661 (Wang et al, [2014])) were generated and then infected with lentiviruses for constitutive expression of sgRNAs targeting AAVS1 control region (Addgene plasmid #50662 (Wang et al, [2014])) or DDB1 #1 ([…]); #2 ([…]). Cas9 expression is induced by doxycycline (2 μg/mL) and experiments performed subsequently.

For orientation: solubility (kinetic) means the concentration staying in solution when a stock, usually in DMSO, is diluted into the medium. Usually pIC50 stands for −log10 of the IC50, conventionally taken in molar units. In the case of `CN(C)c1ccc(CC(=O)Nc2ncc(SCc3cccnc3)s2)cc1` [S656], the kinetic solubility at 24 h in series [1] worked out at 23 µM (≈ 8.84 µg/mL). Besides, the pIC50 is 6.03 in series [2] (Homo sapiens, OCI-AML-5, 96 h, sgAAVS + DOX); 6.05 in series [2] (Homo sapiens, OCI-AML-5, 96 h, sgAAVS - DOX); 5.66 in series [2] (Homo sapiens, OCI-AML-5, 96 h, sgDDB1 #1 + DOX); 5.93 in series [2] (Homo sapiens, OCI-AML-5, 96 h, sgDDB1 #1 - DOX); 5.61 in series [2] (Homo sapiens, OCI-AML-5, 96 h, sgDDB1 #2 + DOX); 6.03 in series [2] (Homo sapiens, OCI-AML-5, 96 h, sgDDB1 #2 - DOX). In addition, the pIC50 in series [2] (sgAAVS + DOX) is 5.95 and 6.02; in series [2] (sgAAVS - DOX), 6.02 and 6.13; in series [2] (sgDDB1 #1 + DOX) it was 5.68 and 5.72; in series [2] (sgDDB1 #1 - DOX), 5.99 and 6.02; in series [2] (sgDDB1 #2 + DOX), 5.62 and 5.79; in series [2] (sgDDB1 #2 - DOX), 5.97 and 6.01.
